Experimental data: paper PMC7686273 (Bioorganic & medicinal chemistry letters, 2020)

Target: rat mGlu7 (Rattus norvegicus, UniProt P35400)
Assay: calcium mobilization assay with rat mGlu7/Gα15/HEK cells
Type: cell-based
Details: not given

rat mGlu7, sequence (P35400 35-915): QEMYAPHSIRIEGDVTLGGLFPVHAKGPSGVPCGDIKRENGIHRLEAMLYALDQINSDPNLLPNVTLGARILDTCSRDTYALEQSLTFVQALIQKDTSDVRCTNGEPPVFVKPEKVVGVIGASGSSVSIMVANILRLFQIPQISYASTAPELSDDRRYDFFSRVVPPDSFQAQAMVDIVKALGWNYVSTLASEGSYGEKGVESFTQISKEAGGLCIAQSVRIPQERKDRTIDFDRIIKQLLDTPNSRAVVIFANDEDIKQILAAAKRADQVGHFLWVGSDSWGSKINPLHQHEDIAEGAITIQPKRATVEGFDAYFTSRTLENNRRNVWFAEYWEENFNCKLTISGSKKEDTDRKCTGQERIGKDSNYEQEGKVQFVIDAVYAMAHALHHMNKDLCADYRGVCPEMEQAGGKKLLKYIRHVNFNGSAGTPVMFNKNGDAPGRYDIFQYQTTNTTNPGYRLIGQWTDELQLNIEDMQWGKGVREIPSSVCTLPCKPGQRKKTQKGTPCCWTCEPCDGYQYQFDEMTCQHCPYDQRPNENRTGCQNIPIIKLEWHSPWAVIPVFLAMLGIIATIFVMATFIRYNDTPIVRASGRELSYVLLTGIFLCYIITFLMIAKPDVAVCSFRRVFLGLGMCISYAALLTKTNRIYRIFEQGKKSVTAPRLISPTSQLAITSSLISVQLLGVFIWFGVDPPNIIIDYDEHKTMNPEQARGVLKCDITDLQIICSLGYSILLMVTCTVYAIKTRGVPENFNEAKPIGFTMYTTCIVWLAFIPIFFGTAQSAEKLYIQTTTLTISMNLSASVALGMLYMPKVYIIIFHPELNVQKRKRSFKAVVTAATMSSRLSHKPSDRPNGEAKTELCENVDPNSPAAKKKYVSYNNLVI

SMILES | mGlu7 NAM activity in words | fold loss of mGlu7 NAM potency relative to 8
CCOC(=O)c1cnc2c(OC)cccc2c1N1CCN(c2ccccc2Cl)CC1 [11d] | lost activity | 
CCOC(=O)c1cnc2c(OC)cccc2c1N1CCN(c2ccccc2C)CC1 [11e] | lost activity | 
CCOC(=O)c1cnc2c(OC)cccc2c1N1CCN(c2ccccc2C#N)CC1 [11f] | lost activity | 
CCOC(=O)c1cnc2c(OC)cccc2c1N1CCN(c2ccccc2F)CC1 [11h] | lost activity | 
CCOC(=O)c1cnc2c(OC)cccc2c1N1CCN(c2ccc(OC)cc2OC)CC1 [11i] | retained mGlu7 NAM potency | 
CCOC(=O)c1cnc2c(OC)cccc2c1N1CCN(c2c(OC)cccc2OC)CC1 [11j] | retained mGlu7 NAM potency | 
CCOC(=O)c1cnc2c(OC)cccc2c1N1CCN(c2cccnc2OC)CC1 [11l] | modest potency | 
CCOC(=O)c1cnc2c(OC)cccc2c1N1CCN(c2nccnc2OC)CC1 [11m] | modest potency | 
CCOC(=O)c1cnccc1N1CCN(c2ccccc2OC)CC1 [13a] |  | ~ 6.5 fold
CCOC(=O)c1cnc2ccsc2c1N1CCN(c2ccccc2OC)CC1 [13b] |  | ~ 6.5 fold
CCOC(=O)c1cnc2sccc2c1N1CCN(c2ccccc2OC)CC1 [13c] |  | ~ 6.5 fold
CCOC(=O)c1ccc2c(OC)cccc2c1N1CCN(c2ccccc2OC)CC1 [13d] | inactive | 
CCOC(=O)c1cnc2c(OC)cc(OC)cc2c1N1CCN(c2ccccc2OC)CC1 [13f] | equipotent to 8 | 
CCOC(=O)c1cnc2c(OC)cccc2c1N1CCN(c2ccccc2OC)C(C)C1 (stereo not drawn) [14a] |  | ~ 2 fold
CCOC(=O)c1cnc2c(OC)cccc2c1N1CCN(c2ccccc2OC)CC1C (stereo not drawn) [14b] |  | ~ 2 fold
CCOC(=O)c1cnc2c(OC)cccc2c1N(C)CCN(C)c1ccccc1OC [14c] |  | ~ 6 fold
CCOC(=O)c1cnc2c(OC)cccc2c1C1C2CC1CN(c1ccccc1OC)C2 (stereo not drawn) [14f] | inactive | 
CCOC(=O)c1cnc2c(OC)cccc2c1C1CC2CC(C1)N2c1ccccc1OC (stereo not drawn) [14g] | inactive | 
CCOC(=O)c1cnc2c(OC)cccc2c1N1CC2(CN(c3ccccc3OC)C2)C1 [14i] | not productive | 
CCOC(=O)c1cnc2c(OC)cccc2c1-c1ccn(Cc2ccccc2OC)c1 [15j] | competent surrogate | 
CCOC(=O)c1cnc2c(OC)cc(OC)cc2c1-c1ccc(-c2ccccc2OC)nc1 [compound 18] | sub-micromolar | 
CCOC(=O)c1cnc2c(OC)cc(OC)cc2c1-c1ccc(-c2ccccc2OCC)nc1 [compound 19] | sub-micromolar | 

Tested on: not listed separately
Assay: clearance in vivo
Details: plasma

SMILES | clearance [mL/min/kg]
CCOC(=O)c1cnc2c(OC)cccc2c1-c1cnc(-c2ccccc2OC)c(OC)c1 [15h] | 70

Tested on: not listed separately
Assay: stability under cell-based assay conditions
Type: physicochemical
Details: cell buffer

SMILES | stability of the ester under cell-based assay conditions
CCOC(=O)c1cnc2c(OC)cccc2c1N1CCN(c2ccccc2OC)CC1 [compound 8] | stable
